The values that follow come from article PMC6812366 (ACS Omega, 2019).

The structures appear in SMILES notation.

The target of experiment [1] is T1, hDcpS (human decapping scavenger enzyme) (Homo sapiens, UniProt Q96C86). The experiment can be described thus: HPLC decapping assay with recombinant enzyme, hydrolysis rate V0 at […] substrate. The class given is biochemical.
Experiment [2] addresses T2, CeDcpS (C. elegans decapping scavenger enzyme) (Caenorhabditis elegans, UniProt G5EFS4).
T2 sequence (G5EFS4 1-311): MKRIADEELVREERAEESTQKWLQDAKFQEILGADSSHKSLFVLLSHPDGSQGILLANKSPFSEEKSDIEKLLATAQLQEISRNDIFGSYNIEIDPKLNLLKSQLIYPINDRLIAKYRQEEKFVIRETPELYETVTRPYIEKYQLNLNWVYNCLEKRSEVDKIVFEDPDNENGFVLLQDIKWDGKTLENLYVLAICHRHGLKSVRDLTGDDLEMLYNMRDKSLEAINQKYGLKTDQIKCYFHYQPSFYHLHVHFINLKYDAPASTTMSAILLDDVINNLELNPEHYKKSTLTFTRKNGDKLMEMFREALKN
Described as above. The format is biochemical.

In experiment [3] the target is T2, CeDcpS (C. elegans decapping scavenger enzyme). Nature of the experiment: intrinsic Trp fluorescence quenching titration, association constant Kas. The class given is binding.
The target of experiment [4] is T1, hDcpS (human decapping scavenger enzyme). The experiment is described as above. The format is binding.

T1 sequence (Q96C86 2-337): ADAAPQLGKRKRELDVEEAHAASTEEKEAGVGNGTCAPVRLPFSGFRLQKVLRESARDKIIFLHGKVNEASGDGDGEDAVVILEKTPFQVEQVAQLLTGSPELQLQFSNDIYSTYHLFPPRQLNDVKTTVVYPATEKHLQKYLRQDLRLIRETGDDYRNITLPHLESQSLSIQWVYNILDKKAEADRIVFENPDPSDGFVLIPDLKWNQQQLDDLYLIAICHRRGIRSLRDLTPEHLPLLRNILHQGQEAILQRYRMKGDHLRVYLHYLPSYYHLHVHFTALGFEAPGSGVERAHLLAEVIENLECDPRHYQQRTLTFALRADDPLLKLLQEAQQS

`C[n+]1cn([C@@H]2O[C@H](COP(=O)(O)OP(=O)(O)OP(=O)(O)OC[C@H]3O[C@@H](n4cnc5c(=O)[nH]c(N)nc54)[C@H](O)[C@@H]3O)[C@@H](O)[C@H]2O)c2nc(N)[nH]c(=O)c21` [m7GpppG, P1-(7-methylguanosin-5′-yl)-P3-guanosin-5′-yl triphosphate]: the hDcpS in experiment [1] stood at 4.33 ± 0.23 µM/min. Further, the CeDcpS in experiment [2] came to 1.83 ± 0.21 µM/min.

`CNc1nc2c(c(=O)[nH]1)[n+](C)cn2[C@@H]1O[C@H](COP(=O)(O)O)[C@@H](O)[C@H]1O` [m2m7GMP]: the Kd is 136 nM in experiment [3] and 286 nM in experiment [4].
